# Like-named read-outs stand apart in the source and are kept apart here.
# Tests used:
# [1] = target: T1, human A3 receptors (Homo sapiens, UniProt P0DMS8); experiment: radioligand binding, displacement of specific [125I]AB-MECA binding at human A3 receptors expressed in HEK-293 cells; settings: for Ki: [125I]AB-MECA; for inhibition at 100 µM: 10^-4 M
# T1 construct: expressed in transfected cells; host or cells: HEK-293 cells (membranes)
# T1 sequence (P0DMS8 1-318): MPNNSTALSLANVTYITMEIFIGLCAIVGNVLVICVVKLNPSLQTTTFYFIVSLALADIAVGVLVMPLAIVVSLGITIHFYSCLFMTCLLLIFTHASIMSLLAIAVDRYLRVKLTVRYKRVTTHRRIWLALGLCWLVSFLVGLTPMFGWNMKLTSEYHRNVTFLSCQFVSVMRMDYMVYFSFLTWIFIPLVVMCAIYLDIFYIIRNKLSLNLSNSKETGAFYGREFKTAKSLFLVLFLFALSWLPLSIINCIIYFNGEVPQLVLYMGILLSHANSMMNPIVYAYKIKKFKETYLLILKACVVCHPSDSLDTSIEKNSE
# Method: A3 receptors expressed in HEK293 cells, in membranes, expressed as
# binding displaced at 100 μM.
# [2] = target: T2, A2a receptors (Rattus norvegicus, UniProt P30543); experiment: radioligand binding, displacement of specific [3H]CGS 21680 binding in rat striatal membranes; settings: for inhibition at 100 µM: 10^-4 M
# T2 construct: Displacement of specific [^3 H]; from tissue; host or cells: rat striatal membranes
# T2 sequence (P30543 whole entry): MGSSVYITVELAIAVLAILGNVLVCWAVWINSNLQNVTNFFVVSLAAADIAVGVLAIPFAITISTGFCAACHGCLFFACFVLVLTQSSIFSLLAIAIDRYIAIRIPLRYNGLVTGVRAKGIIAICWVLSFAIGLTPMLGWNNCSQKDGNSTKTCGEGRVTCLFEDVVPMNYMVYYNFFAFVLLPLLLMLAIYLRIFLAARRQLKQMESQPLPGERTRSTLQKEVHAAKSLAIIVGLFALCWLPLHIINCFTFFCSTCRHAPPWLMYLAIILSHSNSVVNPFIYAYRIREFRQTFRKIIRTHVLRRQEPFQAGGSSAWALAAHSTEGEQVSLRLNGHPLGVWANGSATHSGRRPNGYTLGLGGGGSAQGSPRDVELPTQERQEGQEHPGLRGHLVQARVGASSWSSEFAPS
# Method: ^b Displacement of specific [^3 H]
# or as a percentage of specific binding displaced at 100 μM.
# [3] = target: T3, A1 receptors (Rattus norvegicus, UniProt P25099); experiment: biochemical; assay type: binding; settings: for inhibition at 100 µM: 10^-4 M, read-out: displacement of specific binding rA1
# T3 sequence (P25099 1-326): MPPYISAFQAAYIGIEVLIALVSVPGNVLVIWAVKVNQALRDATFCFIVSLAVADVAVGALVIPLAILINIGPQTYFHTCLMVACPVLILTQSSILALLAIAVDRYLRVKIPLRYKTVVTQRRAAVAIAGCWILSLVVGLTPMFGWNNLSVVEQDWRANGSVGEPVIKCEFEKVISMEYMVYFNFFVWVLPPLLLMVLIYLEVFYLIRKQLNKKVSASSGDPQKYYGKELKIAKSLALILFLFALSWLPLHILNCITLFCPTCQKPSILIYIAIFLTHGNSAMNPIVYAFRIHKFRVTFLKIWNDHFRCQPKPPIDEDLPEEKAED
# Method: ^a Displacement of specific [^3 H] PIA binding in rat brain
# percentage of specific binding displaced at 100 μM.
# [4] = Table 3, HEK-293 membranes, read-out: Ki hA3
# [5] = Table 3, [3H]PIA, rat brain membranes, read-out: Ki rA1
# [6] = Table 3, read-out: displacement of specific binding rA2a
# [7] = Table 5, HEK-293 membranes, read-out: Ki hA3
# [8] = Table 5, [3H]CGS 21680, rat striatal membranes, read-out: Ki rA2a
# [9] = Table 5, read-out: displacement of specific binding rA2a
# [10] = Table 6, read-out: % inhibition hA3
# [11] = Table 6, [3H]PIA, rat brain membranes, read-out: K2 (rA1)
# [12] = Table 6, [3H]CGS 21680, rat striatal membranes, read-out: K2 (rA2a)
structure (smiles),measurement,setting,value
"CCOC(=O)C1=C(C)NC(C)=C(C(=O)OC)C1c1ccc2c(c1)OCO2 (racemic) [Compound 73, 3-methyl-5-ethyl-2,6-dimethyl-4-[3,4-(methylenedioxy)phenyl]-1,4(R,S)-dihydropyridine-3,5-dicarboxylate]",Ki,"[1]; Table 9, HEK membranes, read-out: Ki hA3",4.58 µM
same,Ki,"[2]; Table 9, [3H]CGS 21680, rat striatal membranes, read-out: Ki rA2A",5.27 µM
same,Ki,"[3]; Table 9, [3H]PIA, rat brain membranes, read-out: Ki rA1",3.66 µM
COc1ccc2c(c1)C(=O)[C@H](O)[C@@H](C#Cc1ccccc1)O2 (relative stereo) [Compound 16],rA1/hA3,[1],6.2
same,Ki,"[1]; Table 4, HEK-293 membranes, read-out: Ki hA3",8.17 µM
same,inhibition at 100 µM,"[2]; Table 4, read-out: displacement of specific binding rA2a",< 10%
same,Ki,"[3]; Table 4, [3H]PIA, rat brain membranes, read-out: Ki rA1",50.3 ± 17 µM
CCOC(=O)c1c(C)nc(-c2ccccc2)c(C(=O)OCc2ccccc2)c1C#Cc1ccccc1 [B],rA1/hA3,[1],2.6
same,inhibition at 100 µM,"[2]; Table 11, read-out: % inhibition rA2A",43 ± 2%
same,Ki,"[3]; Table 11, [3H]PIA, rat brain membranes, read-out: Ki rA1",7.01 ± 1.98 µM
"CCCOc1cc(OCCC)c2c(=O)c(OCCC)c(-c3ccccc3)oc2c1 [Compound 4, 3,5,7-Tripropyloxyflavone]",Ki,[1]; [4],0.317 µM
same,Ki,[3]; [5],1.1 ± 0.2 µM
"CCOc1ccc(-c2oc3cc(OCC)cc(O)c3c(=O)c2OCC)c(OCC)c1 [Compound 7, 2',4',3,7-Tetraethoxy-5-hydroxymorin]",Ki,[1]; [4],4.83 ± 1.4 µM
same,rA1/hA3,"[1]; Table 3, ratio of Ki",> 40
same,inhibition at 100 µM,[2]; [6],< 10%
same,inhibition at 100 µM,[3]; Table 3,< 10%
"COc1cc(OC)c(-c2oc3ccccc3c(=O)c2O)c(OC)c1 [Compound 9, reference compound]",Ki,[1]; [4],50.1 ± 7.8 µM
same,rA1/hA3,"[1]; Table 3, ratio of Ki",0.15
same,inhibition at 100 µM,[2]; [6],< 10%
same,Ki,[3]; [5],7.32 ± 1.36 µM
"COc1ccc2oc(C#Cc3ccccc3)c(O)c(=O)c2c1 [Compound 10, 2-phenylacetylenyl-3-hydroxy-6-methoxyflavone]",rA1/hA3,[1],> 8
same,inhibition at 100 µM,[2]; [6],< 10%
same,inhibition at 100 µM,[3]; Table 3,< 10%
"COc1c2ccoc2cc2oc(C=O)cc(=O)c12 [Compound 18, 4-Methoxy-7-formyl-5H-furo [3,2-g][1]-benzopyrano-5-one]",Ki,[1]; [7],88.9 ± 27.1 µM
same,rA1/hA3,"[1]; Table 5, ratio of Ki",> 2
same,inhibition at 100 µM,"[2]; Table 5, read-out: % of specific binding displaced rA2a",25 ± 8%
same,inhibition at 100 µM,[3]; Table 5,< 10%
"COc1c2ccoc2cc2oc(/C=C/c3ccccc3)cc(=O)c12 [Compound 19, 4-methyloxy-7-trans-styryl-visnagin]",Ki,[1]; [7],8.28 ± 2.69 µM
same,rA1/hA3,"[1]; Table 5, ratio of Ki",0.37
same,Ki,[2]; [8],11.5 ± 1.3 µM
same,Ki,"[3]; Table 5, [3H]PIA, rat brain membranes, read-out: Ki rA1",32.6 ± 10.5 µM
"COc1c2ccoc2cc2oc(/C=C/C=Cc3ccccc3)cc(=O)c12 [Compound 22, 4-methoxy-7-phenylbutadienyl visnagin]",inhibition at 100 µM,"[1]; Table 5, read-out: displacement of specific binding hA3",< 10%
same,inhibition at 100 µM,[2]; [9],< 10%
same,inhibition at 100 µM,[3]; Table 5,< 10%
"CCOc1c2ccoc2cc2oc(/C=C/C=Cc3ccccc3)cc(=O)c12 [Compound 23, 4-ethoxy-7-phenylbutadienyl visnagin]",rA1/hA3,"[1]; Table 5, ratio of Ki",> 4
same,Ki,[2]; [8],167 µM
same,inhibition at 100 µM,[3]; Table 5,< 10%
"COc1c2ccoc2cc2oc(C=Nc3ccccc3)cc(=O)c12 [Compound 24, 4-methoxy-7-(CH=N-phenyl)visnagin]",rA1/hA3,"[1]; Table 5, ratio of Ki",> 20
same,inhibition at 100 µM,[2]; [9],< 10%
same,inhibition at 100 µM,[3]; Table 5,< 10%
"O=c1cc(-c2ccccc2)oc2cc(O)ccc12 [Compound 26, reference compound]",inhibition at 100 µM,[1]; [10],41 ± 7%
same,Ki,"[2]; striatal membranes, read-out: K2 (rA2a)",2.68 ± 0.68 µM
same,Ki,[3]; [11],3.03 ± 0.49 µM
"COc1ccc(-c2cc(=O)c3ccc(O)cc3o2)cc1OC [Compound 27, reference compound]",inhibition at 100 µM,[1]; [10],32 ± 4%
same,Ki,[2]; [12],35.4 ± 7.3 µM
same,Ki,[3]; [11],18.8 ± 3.6 µM
"O=c1cc(-c2ccc(O)cc2)oc2cc(O)cc(O)c12 [Compound 28, apigenin, reference compound]",inhibition at 10 µM,"[1]; Table 6, 10^-5 M, read-out: % inhibition hA3",63 ± 1%
same,Ki,[2]; [12],7.58 ± 1.23 µM
same,Ki,[3]; [11],3 ± 0.29 µM
"COc1ccc(-c2cc(=O)c3c(O)cc(C)cc3o2)cc1 [Compound 29, reference compound]",Ki,"[1]; Table 6, HEK-293 membranes, read-out: K2 (hA3)",6.7 ± 1.78 µM
same,Ki,[2]; [12],28 ± 7.35 µM
same,Ki,"[3]; brain membranes, read-out: K2 (rA1)",3.4 ± 0.35 µM

# Source: US6066642A, “Dihydropyridine-, pyridine-, benzopyran-4-one- and triazoloquinazoline derivative, their preparation and their use as adenosine receptor antagonists” (priority 1998, dated 2000)
